Entries after “also recorded” stand apart in the source; their conditions may differ.
How the values were obtained:
ERBB2 (P-Y1248) = ERBB2 (P-Y1248) (Homo sapiens, UniProt P04626); experiment: Immunoprecipitation and western blot of ERBB2 phosphorylation in lapatinib-treated melanoma cells; assay type: cell-based; settings: 1 hour, 5 μM lapatinib
Experimental: (§1) Cells were treated for 72 hours in the presence of increasing concentrations (0.01-30 μM) of lapatinib, and relative cell number was estimated by methylene blue protein staining and plotted as percent survival when compared to vehicle-treated control versus Log (lapatinib) nM (where 1 is 10 nM lapatinib). Fitted lines were generated using 4-parameter nonlinear regression via GraphPad Prism. […] The IC50 values for inhibition of cell growth by 72 hour treatment with lapatinib of a larger panel of lines harboring WT and mutant ERBB4 were analyzed using GraphPad Prism v.5 (n=3). (C) Immunoprecipitation and western blot analysis of ERBB4 autophosphorylation in cells treated with lapatinib. Cells were treated for 1 hour with lapatinib or vehicle alone as control. […] The activity of ERBB4, AKT and ERBB2 was determined by immunoblotting with phospho-specific antibodies. […] Lysates and immunoprecipitates were analyzed by western blotting using the indicated antibodies. […] (E) Quantitative assessment of data from 2 cell lines harboring WT ERBB4 and 3 cell lines harboring mutant ERBB4 that were performed similarly to (D). […] (G) Quantitation of FACS-sorted lapatinib-treated cells. The percent apoptotic cells were determined based on the sub-G1 population for vehicle-treated cells or lapatinib-treated cells.

[1] = tested on: melanoma cell lines harboring mutant ERBB4; experiment: Growth inhibition of melanoma cell lines by lapatinib (72 h, methylene blue staining / SYBR Green I); assay type: cell-based, human
Experimental: as §1

ERK1 and ERK2 = experiment: Western blot of ERK1/2 phosphorylation in lapatinib-treated melanoma cells; assay type: cell-based, human; settings: 72 hours, 5 μM lapatinib; P-ERK1/ERK1, P-ERK2/ERK2
Experimental: FIG. 14: Effect of lapatinib in ERK1/2 signaling pathways. […] Cells were treated for 72 hours with 5 μM lapatinib or vehicle as control. The activity of ERK1 and ERK2 was determined by immunoblotting with phospho-specific antibodies. Total ERK protein was also determined by immunoblotting. Shown are representative blots. (B) Quantitative assessment of data from one melanoma cell line harboring mutant ERBB4. The ratio of band intensities of P-ERK1/ERK1 or P-ERK2/ERK2 was analyzed for each melanoma cell line.
Transfected cells were washed 3× in PBS and lysed using 0.5 ml 1% NP-40 lysis buffer (1% NP-40, 50 mM Tris-HCl pH 7.5, 150 mM NaCl, complete protease inhibitor tablet, EDTA-free (Roche, Indianapolis, Ind.), 1 μM sodium orthovanadate, 1 mM sodium fluoride, and 0.1% β-mercaptoethanol) per T-75 flask for 20 minutes on ice. Lysed cells were scraped and transferred into a 1.5 mL microcentrifuge tube. Extracts were centrifuged for 10 minutes at 14,000 rpm at 4° C. […]
Scanned films from western blot analysis of SDS-PAGE were analyzed using ImageJ (NIH software). Individual bands were quantitated and plots were generated to determine the intensities in each band. The data was then exported to Microsoft Excel and analyzed further for phospho:total ratios of protein.

ERBB4 (P-Y1162) = experiment: Immunoprecipitation and western blot of ERBB4 autophosphorylation in lapatinib-treated melanoma cells; assay type: cell-based, human
Experimental: as §1

AKT (P-S473) = experiment: Western blot of AKT phosphorylation in lapatinib-treated melanoma cells; assay type: cell-based, human; settings: 1 hour, 5 μM lapatinib
Experimental: as §1

[2] = tested on: melanoma cells harboring mutant ERBB4 or WT ERBB4; experiment: Flow cytometry (PI staining) of the sub-G1 apoptotic population after lapatinib; assay type: cell-based, human; settings: 72 hours, 5 μM lapatinib, FACS
Experimental: as §1

Chain of ERBB2 (P-Y1248) (P04626 23-1255): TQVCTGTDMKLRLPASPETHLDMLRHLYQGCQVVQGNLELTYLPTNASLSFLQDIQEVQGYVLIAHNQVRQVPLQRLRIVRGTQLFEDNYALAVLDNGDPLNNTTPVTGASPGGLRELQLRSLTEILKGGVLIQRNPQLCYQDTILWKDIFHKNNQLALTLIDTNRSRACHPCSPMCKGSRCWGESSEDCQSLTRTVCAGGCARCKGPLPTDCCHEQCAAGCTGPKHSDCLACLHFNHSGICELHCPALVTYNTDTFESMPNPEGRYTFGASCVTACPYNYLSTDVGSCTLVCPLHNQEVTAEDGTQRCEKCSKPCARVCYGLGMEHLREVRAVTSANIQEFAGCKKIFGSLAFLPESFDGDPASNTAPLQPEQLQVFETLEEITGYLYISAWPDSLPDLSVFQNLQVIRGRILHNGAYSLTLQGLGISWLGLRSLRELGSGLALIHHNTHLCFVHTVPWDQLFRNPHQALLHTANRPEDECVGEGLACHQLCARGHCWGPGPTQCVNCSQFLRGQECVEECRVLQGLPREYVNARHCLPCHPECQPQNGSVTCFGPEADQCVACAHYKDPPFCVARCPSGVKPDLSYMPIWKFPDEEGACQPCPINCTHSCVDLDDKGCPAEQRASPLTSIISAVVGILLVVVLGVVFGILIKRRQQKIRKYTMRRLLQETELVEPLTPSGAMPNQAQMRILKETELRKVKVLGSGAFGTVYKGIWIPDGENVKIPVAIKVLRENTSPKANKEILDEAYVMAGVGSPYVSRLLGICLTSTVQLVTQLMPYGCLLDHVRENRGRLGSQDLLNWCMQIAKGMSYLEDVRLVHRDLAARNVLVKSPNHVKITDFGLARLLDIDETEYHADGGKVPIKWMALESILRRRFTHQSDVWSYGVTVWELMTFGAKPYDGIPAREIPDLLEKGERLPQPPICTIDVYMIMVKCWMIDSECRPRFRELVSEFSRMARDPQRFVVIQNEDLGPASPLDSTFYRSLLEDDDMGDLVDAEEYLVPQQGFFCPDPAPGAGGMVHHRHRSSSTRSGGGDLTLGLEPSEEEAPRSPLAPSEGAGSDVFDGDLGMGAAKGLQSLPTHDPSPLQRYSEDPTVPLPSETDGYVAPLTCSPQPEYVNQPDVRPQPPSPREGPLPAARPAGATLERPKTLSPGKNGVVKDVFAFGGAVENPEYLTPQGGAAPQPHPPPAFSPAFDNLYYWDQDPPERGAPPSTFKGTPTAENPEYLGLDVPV

For `CS(=O)(=O)CCNCc1ccc(-c2ccc3ncnc(Nc4ccc(OCc5cccc(F)c5)c(Cl)c4)c3c2)o1` [lapatinib], the “inhibition of ERBB2 in melanoma cell lines” value (ERBB2 (P-Y1248)) was “No inhibition”, the “reduction of cell proliferation / sensitivity to lapatinib, ERBB4 mutant versus WT ERBB4 melanoma cells” value ([1]; 72 hours, 0.01-30 μM lapatinib, compared with cells containing endogenous WT ERBB4) was “increased sensitivity to lapatinib compared to WT ERBB4 cell lines; also recorded: reduced cell proliferation to a greater extent in cells containing endogenous ERBB4 mutations” and the “fold greater sensitivity to lapatinib (from IC50) of melanoma cells harboring ERBB4 mutations than cells with WT receptor” value ([1]; IC50 for inhibition of cell growth, 72 hour treatment, n=3) was 10- to 250 fold. The “inhibition of ERK activation” value (ERK1 and ERK2) was “slightly inhibited; also recorded: increased lapatinib sensitivity with respect to ERK1 and ERK2 phosphorylation”, the “inhibition of ERBB4 activation in cells harboring mutant ERBB4” value (ERBB4 (P-Y1162); 1 hour, 5 μM lapatinib, (P-Y1162)-ERBB4/ERBB4) was “specific inhibition of ERBB4 and AKT activation” and the “inhibition of ERBB4 receptor autophosphorylation” value (ERBB4 (P-Y1162); cells treated for 1 hour with lapatinib, α-P-ERBB4 (Y1162)) was “inhibited receptor autophosphorylation in a dose-dependent manner”. The “inhibition of AKT activation in cells harboring mutant ERBB4” value (AKT (P-S473)) was “specific inhibition of ERBB4 and AKT activation”, the “apoptosis (sub-G1 population) of melanoma cells harboring mutant ERBB4 compared to WT ERBB4 lines” value [2] was “increased sub-G1 population” and the “apoptosis (sub-G1 population) of melanoma cells harboring mutant ERBB4 compared to WT ERBB4 lines” value ([2]; listed as Lapatinib) was “markedly increased apoptosis”.

— patent publication US8652787B2, “Use of ERBB4 as a prognostic and therapeutic marker for melanoma” (The United States of America, as represented by the …, priority 2008, dated 2014)
